The target in one test is GDP-loaded KRAS-G12V (Homo sapiens, UniProt P01116, G12V). Description: KRAS (GDP) biochemical TR-FRET probe displacement assay, G12V. It is filed as binding. The note with it: 2 hours. As to the method:
(§1) Compounds are tested for binding to GDP-loaded wild-type KRAS (WT), KRAS-G12C, KRAS-G12D, and KRAS-G12V in a 384-well assay format using a TR-FRET probe displacement assay in buffer consisting of 50 mM Hepes (pH 7.4), 150 mM NaCl, 5 mM MgCl2 and 0.005% Tween-20. […] Compounds are serially diluted (1:3) in DMSO. The LabCyte ECHO Acoustic dispenser was used to pre-spot the assay plates (384-well Non-Binding Surface plates, Corning, Catalog #3824) with 50 nL of compound. 5 μL of 2X enzyme concentration is added to the pre-spotted plates and incubated for 30 minutes before adding 5 μL of 2X concentration of Eu-streptavidin and Cy-5 labelled probe (10 μL final reaction volume). The plates are incubated at room temperature for 2 hours before measuring TR-FRET ratio (665 nm/615 nm) on the Envision multimode plate reader. The ratios are normalized to a positive (saturating concentration of known inhibitor) and negative (DMSO) control and plotted against the log of compound concentration.

The subject of test [1] is cellular pERK in ASPC-1 (KRAS G12D) cells. Description: Cell based pERK assay, ASPC-1. The note with it: Homo sapiens, read-out: AsPC1 pERK EC50. The gist of the method: (§2)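 Cells seeded overnight (5000 AsPC-1 or 7500 others per well; RPMI/10% FBS, DMEM/10% FBS for MIA-PaCa-2), treated with 1:3 serial dilutions for 2 h at 37 °C. Phospho-ERK1/2 (Thr202/Tyr204) measured by HTRF (665/615 nm) after overnight lysis, normalized to DMSO and saturating known-inhibitor controls.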

The subject of test [2] is cellular pERK in NCI-H441 (KRAS-G12V) cells. Nature of the test: Cell based pERK assay, NCI-H441. As to conditions: Homo sapiens, read-out: H441 PERK EC50. The gist of the method:
as §2

Another test has as its target GDP-loaded KRAS-G12C (Homo sapiens, UniProt P01116, G12C). Description: KRAS (GDP) biochemical TR-FRET probe displacement assay, G12C. The note with it: 2 hours. It counts as binding. As to the method:
as §1
In general terms: Time-resolved FRET reads energy transfer from a long-lived donor to a nearby acceptor.

In test [3] the test system is cellular pERK in MIA-PaCa-2 (KRAS-G12C) cells. Nature of the test: Cell based pERK assay, MIA-PaCa-2. As to conditions: Homo sapiens, read-out: MIAPaCa2 pERK EC50. The gist of the method:
as §2

Test [4] deals with GDP-loaded wild-type KRAS (WT) (Homo sapiens, UniProt P01116). Description: KRAS (GDP) biochemical TR-FRET probe displacement assay, WT. The note with it: 2 hours. It counts as binding. As to the method:
as §1

Test [5] relates to cellular pERK in Kuramochi (WT KRAS) cells. Description: Cell based pERK assay, Kuramochi. As to conditions: read-out: Kuramochi pERK EC50. The gist of the method:
as §2

In a further test the target is GDP-loaded KRAS-G12D (Homo sapiens, UniProt P01116, G12D). Description: KRAS (GDP) biochemical TR-FRET probe displacement assay, G12D. It counts as binding. The note with it: 2 hours. The procedure:
as §1

[6] abbreviates: ASPC1, ASPC-1 (KRAS G12D), 2 hours incubation, HTRF phospho-ERK1/2.
Where [7] appears, read: NCI-H441 (KRAS-G12V), 2 hours incubation, HTRF phospho-ERK1/2.
[8] abbreviates: MIA-PaCa-2 (KRAS-G12C), 2 hours incubation, HTRF phospho-ERK1/2.
Where [9] appears, read: Kuramochi (WT KRAS), 2 hours incubation, HTRF phospho-ERK1/2.

Like-named read-outs stand apart in the source and are kept apart here.

As a reminder, the IC50 is the point on the concentration scale where inhibition reaches its midpoint. Low readings indicate greater potency in that assay, high ones weaker potency in that assay. As a reminder, the EC50 is the concentration giving half of the maximal effect.

GDP-loaded KRAS-G12D, sequence (P01116 1-188 isoform P01116-2 G12D): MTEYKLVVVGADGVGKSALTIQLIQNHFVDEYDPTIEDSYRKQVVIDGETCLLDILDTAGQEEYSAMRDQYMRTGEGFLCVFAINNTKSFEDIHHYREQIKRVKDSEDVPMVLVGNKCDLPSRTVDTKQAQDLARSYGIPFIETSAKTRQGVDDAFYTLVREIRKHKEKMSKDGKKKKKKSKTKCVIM
GDP-loaded wild-type KRAS (WT), sequence (P01116 1-188 isoform P01116-2): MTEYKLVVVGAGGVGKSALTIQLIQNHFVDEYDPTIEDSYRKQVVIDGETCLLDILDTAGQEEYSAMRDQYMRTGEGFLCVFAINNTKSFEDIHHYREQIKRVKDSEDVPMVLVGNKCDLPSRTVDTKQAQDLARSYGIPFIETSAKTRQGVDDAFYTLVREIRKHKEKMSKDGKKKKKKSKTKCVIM
GDP-loaded KRAS-G12V, sequence (P01116 1-188 isoform P01116-2 G12V): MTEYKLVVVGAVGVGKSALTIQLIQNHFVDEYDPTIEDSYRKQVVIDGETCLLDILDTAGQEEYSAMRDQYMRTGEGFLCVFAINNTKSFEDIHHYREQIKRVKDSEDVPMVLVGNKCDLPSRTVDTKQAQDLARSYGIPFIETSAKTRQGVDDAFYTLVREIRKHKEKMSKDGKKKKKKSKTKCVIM
GDP-loaded KRAS-G12C, sequence (P01116 1-188 isoform P01116-2 G12C): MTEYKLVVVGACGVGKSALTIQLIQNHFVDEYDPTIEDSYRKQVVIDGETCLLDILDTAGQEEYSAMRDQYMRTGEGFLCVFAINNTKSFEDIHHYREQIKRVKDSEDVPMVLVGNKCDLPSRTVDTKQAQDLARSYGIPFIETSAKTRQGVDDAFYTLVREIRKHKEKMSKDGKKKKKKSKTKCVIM

For the molecule `Cc1c(F)c(N)cc(-c2nc3c4c(nc(OC[C@@]56CCCN5C[C@H](F)C6)nc4c2F)N2C[C@@]4(F)CC[C@](F)(N4)[C@H]2CCC3)c1C(F)(F)F` [Example 4-4], the IC50 on GDP-loaded KRAS-G12V is 45.1 nM; at GDP-loaded KRAS-G12C, 46.7 nM; in test [4], 25.8 nM; on GDP-loaded KRAS-G12D, > 100 nM. In addition, the half-maximal effective concentration (EC50) in test [1] (setting [6]) came to 175 nM; in test [2] (setting [7]), 884 nM; in test [3] (setting [8]) it was 59.4 nM; in test [5] (setting [9]) it was 15.4 nM.
For `N#Cc1c(N)sc2c(F)ccc(-c3nc4c5c(nc(OCC67CCCN6CCC7)nc5c3F)N3C[C@@]5(F)CC[C@](F)(N5)[C@H]3CCC4)c12` [Example 4-7, 2-amino-7-fluoro-4-((6aR,7R,10S)-1,7,10-trifluoro-13-((tetrahydro-1H-pyrrolizin-7a(5H)-yl)methoxy)-5,6,6a,7,8,9,10,11-octahydro-4H-3,11a,12,14,15-pentaaza-7,10-methanocyclohepta[4,5]cycloocta[1,2,3-de]naphthalen-2-yl)benzo[b]thiophene-3-carbonitrile], the concentration for half-maximal inhibition (IC50) came to 44.1 nM on GDP-loaded KRAS-G12V, 28.5 nM on GDP-loaded KRAS-G12C, 10.1 nM in test [4] and 86.8 nM on GDP-loaded KRAS-G12D. Besides, the EC50 in test [1] (setting [6]) is 840 nM; in test [3] (setting [8]), 59.8 nM; in test [5] (setting [9]), 15.6 nM.
With `C#Cc1c(F)ccc2cc(N)cc(-c3nc4c5c(nc(OC[C@@H]6CCCN6C)nc5c3F)N3C[C@@]5(F)CC[C@](F)(N5)[C@H]3CCC4)c12` [Example 4-8, 5-ethynyl-6-fluoro-4-((6aR,7R,10S)-1,7,10-trifluoro-13-(((S)-1-methylpyrrolidin-2-yl)methoxy)-5,6,6a,7,8,9,10,11-octahydro-4H-3,11a,12,14,15-pentaaza-7,10-methanocyclohepta[4,5]cycloocta[1,2,3-de]naphthalen-2-yl)naphthalen-2-amine], the IC50 amounted to 34.7 nM at GDP-loaded KRAS-G12V, 13.2 nM on GDP-loaded KRAS-G12C, 6.19 nM in test [4] and 57.8 nM on GDP-loaded KRAS-G12D. The EC50 in test [1] (setting [6]) stood at 169 nM; in test [3] (setting [8]), 6.73 nM; in test [5] (setting [9]), 5.11 nM.
On to `C[C@H]1Cc2nc(-c3cc(O)cc4ccc(F)c(F)c34)c(F)c3nc(OCC45CCCN4CCC5)nc(c23)N2C[C@@]3(F)CC[C@](F)(N3)[C@H]12` [Example 4-12, 5,6-difluoro-4-((5S,5aS,6R,9S)-1,6,9-trifluoro-5-methyl-12-((tetrahydro-1H-pyrrolizin-7a(5H)-yl)methoxy)-4,5,5a,6,7,8,9,10-octahydro-3,10a,11,13,14-pentaaza-6,9-methanonaphtho[1,8-ab]eptalene-2-yl)naphthalen-2-ol], for which the IC50 on GDP-loaded KRAS-G12V stood at 0.353 nM; at GDP-loaded KRAS-G12C, 0.172 nM; in test [4] it was 0.086 nM; at GDP-loaded KRAS-G12D, 1.16 nM. For the same molecule, the EC50 in test [1] (ASPC1, 2 h) amounted to 29 nM; in test [2] (NCI-H441, 2 h) it was 3.7 nM; in test [3] (MIA PaCa-2, 2 h) it was 0.944 nM; in test [5] (2 h) it was 1.71 nM.
For the molecule `C[C@H]1Cc2nc(-c3cc(N)cc(Cl)c3C(F)(F)F)c(F)c3nc(OCC45CCCN4CCC5)nc(c23)N2C[C@@]3(F)CC[C@](F)(N3)[C@H]12` [Example 4-17, 3-chloro-5-((8S,8aS,9R,12S)-4,9,12-trifluoro-8-methyl-2-((tetrahydro-1H-pyrrolizin-7a(5H)-yl)methoxy)-7,8,8a,9,10,11,12,13-octahydro-1,3,6,13a,14-pentaaza-9,12-methanonaphtho[1,8-ab]heptalen-5-yl)-4-(trifluoromethyl)aniline], the IC50 stood at 0.865 nM at GDP-loaded KRAS-G12V, 0.479 nM on GDP-loaded KRAS-G12C, 0.161 nM in test [4] and 2.79 nM at GDP-loaded KRAS-G12D. Moreover, the figures for the EC50 in test [1] (setting [6]), in test [3] (setting [8]) and in test [5] (setting [9]) were 38 nM, 1.72 nM and 4.32 nM, respectively.
Regarding `CCC1CCCc2cc(N)cc(-c3nc4c5c(nc(OCC67CCCN6CCC7)nc5c3F)N3C[C@@]5(F)CC[C@](F)(N5)[C@H]3CCC4)c21` (stereo partly drawn) [Example 4-24, 5-ethyl-4-((6aR,7R,10S)-1,7,10-trifluoro-13-((tetrahydro-1H-pyrrolizin-7a(5H)-yl)methoxy)-5,6,6a,7,8,9,10,11-octahydro-4H-3,11a,12,14,15-pentaaza-7,10-methanocyclohepta[4,5]cycloocta[1,2,3-de]naphthalen-2-yl)-5,6,7,8-tetrahydronaphthalen-2-amine], the half-maximal inhibitory concentration (IC50) (at GDP-loaded KRAS-G12V; at GDP-loaded KRAS-G12C; in test [4]; at GDP-loaded KRAS-G12D) was > 100 nM throughout. In addition, the EC50 in test [1] (setting [6]) is > 1000 nM; in test [3] (setting [8]), 560 nM; in test [5] (setting [9]) it was 312 nM.
Consider `C#Cc1c(F)ccc2cc(N)cc(-c3nc4c5c(nc(OC[C@@]67CCCN6[C@H](COC(C(F)(F)F)(C(F)(F)F)C(F)(F)F)CC7)nc5c3F)N3C[C@@]5(F)CC[C@](F)(N5)[C@H]3CCC4)c12` [Example 4-28, 5-ethynyl-6-fluoro-4-((6aR,7R,10S)-1,7,10-trifluoro-13-(((3S,7aS)-3-(((1,1,1,3,3,3-hexafluoro-2-(trifluoromethyl)propan-2-yl)oxy)methyl)tetrahydro-1H-pyrrolizin-7a(5H)-yl)methoxy)-5,6,6a,7,8,9,10,11-octahydro-4H-3,11a,12,14,15-pentaaza-7,10-methanocyclohepta[4,5]cycloocta[1,2,3-de]naphthalen-2-yl)naphthalen-2-amine], for which the IC50 on GDP-loaded KRAS-G12V was 44.8 nM; on GDP-loaded KRAS-G12C, 7.3 nM; in test [4], 4.98 nM; at GDP-loaded KRAS-G12D, 59.4 nM. Besides, the EC50 in test [1] (setting [6]) was 117 nM; in test [3] (setting [8]), 5.6 nM; in test [5] (setting [9]), 7.5 nM.
With `C#Cc1c(F)ccc2cccc(-c3nc4c5c(nc(OCC67CCCN6CCC7)nc5c3F)N3C[C@@]5(F)CC[C@](F)(N5)[C@H]3CCC4)c12` [Example 4-29, (6aR,7R,10S)-2-(8-ethynyl-7-fluoronaphthalen-1-yl)-1,7,10-trifluoro-13-((tetrahydro-1H-pyrrolizin-7a(5H)-yl)methoxy)-5,6,6a,7,8,9,10,11-octahydro-4H-3,11a,12,14,15-pentaaza-7,10-methanocyclohepta[4,5]cycloocta[1,2,3-de]naphthalene], the IC50 at GDP-loaded KRAS-G12V amounted to 24.8 nM; at GDP-loaded KRAS-G12C, 8.68 nM; in test [4] it was 5.99 nM; on GDP-loaded KRAS-G12D it was 38.1 nM. Besides, the concentration giving a half-maximal response (EC50) came to 305 nM in test [1] (setting [6]), 12.8 nM in test [3] (setting [8]) and 6.37 nM in test [5] (setting [9]).
For `C#Cc1c(F)ccc2cc(N)cc(-c3nc4c5c(nc(OC[C@]6(C)CN(C)CC/C6=C\F)nc5c3F)N3C[C@@]5(F)CC[C@](F)(N5)[C@@H]3[C@@H](C)C4)c12` [Example 4-39, 5-ethynyl-6-fluoro-4-((5S,5aS,6R,9S)-1,6,9-trifluoro-12-(((S,E)-4-(fluoromethylene)-1,3-dimethylpiperidin-3-yl)methoxy)-5-methyl-4,5,5a,6,7,8,9,10-octahydro-3,10a,11,13,14-pentaaza-6,9methanonaphtho[1,8-ab]heptalen-2-yl)naphthalen-2-amine], the half-maximal inhibitory concentration (IC50) on GDP-loaded KRAS-G12V was determined as 0.583 nM; at GDP-loaded KRAS-G12C it was 0.383 nM; on GDP-loaded KRAS-G12D, 1.12 nM. For the same molecule, the 50% effective concentration (EC50) is 6.04 nM in test [1] (setting [6]), 0.689 nM in test [2] (setting [7]), 0.253 nM in test [3] (setting [8]) and 3.76 nM in test [5] (setting [9]).
On to `C[C@H]1Cc2nc(-c3cc(N)cc4ccc(F)c(F)c34)c(F)c3nc(OCC45CCCN4CCC5)nc(c23)N2C[C@@]3(F)CC[C@](F)(N3)[C@H]12` [Example 5-1, 5,6-difluoro-4-((5S,5aS,6R,9S)-1,6,9-trifluoro-5-methyl-12-((tetrahydro-1H-pyrrolizin-7a(5H)-yl)methoxy)-4,5,5a,6,7,8,9,10-octahydro-3,10a,11,13,14-pentaaza-6,9-methanonaphtho[1,8-ab]heptalen-2-yl)naphthalen-2-amine], for which the half-maximal inhibitory concentration (IC50) at GDP-loaded KRAS-G12V stood at 7.42 nM; on GDP-loaded KRAS-G12C, 1.71 nM; in test [4] it was 0.271 nM; at GDP-loaded KRAS-G12D it was 16 nM. The EC50 in test [1] (setting [6]) is 62.5 nM; in test [3] (setting [8]) it was 2.34 nM; in test [5] (setting [9]) it was 2.2 nM.

The values are drawn from US20250042922A1, “KRAS MODULATING COMPOUNDS” (priority 2023, published 2025).
